{"source": "patent US8192962B2", "about": "“Processes for detecting toxic substances” (Daikin Industries, Ltd., priority 2001, dated 2012)", "test_system": "Transport facilitation protein genes", "assay": "DNA chip mRNA expression in yeast, transport facilitation protein genes (Table 5)", "assay_type": "cell-based, Saccharomyces cerevisiae S288C", "how_it_was_run": "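Untreated cultures served as reference for log-phase S288C yeast given a growth-inhibiting, non-lethal toxicant dose for 2 h at 25° C. in YPD. Gene expression was measured on a whole-genome DNA chip from Cy3/Cy5-labeled cDNA.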", "data": [{"smiles": "[Cl][Hg][Cl]", "note": "[(3), HgCl2]", "values": [{"measurement": "The level of expressed mRNA in the presence of chemical substance/The level of expressed mRNA in the absence of chemical substance", "setting": "yeast gene YGR224W", "value": 1.2}, {"measurement": "The level of expressed mRNA in the presence of chemical substance/The level of expressed mRNA in the absence of chemical substance", "setting": "yeast gene YGR260W", "value": 3.4}, {"measurement": "The level of expressed mRNA in the presence of chemical substance/The level of expressed mRNA in the absence of chemical substance", "setting": "yeast gene YGR281W", "value": 1.3}, {"measurement": "The level of expressed mRNA in the presence of chemical substance/The level of expressed mRNA in the absence of chemical substance", "setting": "yeast gene YHL035C", "value": 0.9}, {"measurement": "The level of expressed mRNA in the presence of chemical substance/The level of expressed mRNA in the absence of chemical substance", "setting": "yeast gene YHL040C", "value": 1.5}, {"measurement": "The level of expressed mRNA in the presence of chemical substance/The level of expressed mRNA in the absence of chemical substance", "setting": "yeast gene YHL047C", "value": 1.0}, {"measurement": "The level of expressed mRNA in the presence of chemical substance/The level of expressed mRNA in the absence of chemical substance", "setting": "yeast gene YHR026W", "value": 1.9}, {"measurement": "The level of expressed mRNA in the presence of chemical substance/The level of expressed mRNA in the absence of chemical substance", "setting": "yeast gene YHR092C", "value": 7.5}, {"measurement": "The level of expressed mRNA in the presence of chemical substance/The level of expressed mRNA in the absence of chemical substance", "setting": "yeast gene YHR094C", "value": 5.3}, {"measurement": "The level of expressed mRNA in the presence of chemical substance/The level of expressed mRNA in the absence of chemical substance", "setting": "yeast gene YHR175W", "value": 2.4}, {"measurement": "The level of expressed mRNA in the presence of chemical substance/The level of expressed mRNA in the absence of chemical substance", "setting": "yeast gene YIL006W", "value": 1.4}, {"measurement": "The level of expressed mRNA in the presence of chemical substance/The level of expressed mRNA in the absence of chemical substance", "setting": "yeast gene YIL022W", "value": 1.1}, {"measurement": "The level of expressed mRNA in the presence of chemical substance/The level of expressed mRNA in the absence of chemical substance", "setting": "yeast gene YIL056W", "value": 6.2}, {"measurement": "The level of expressed mRNA in the presence of chemical substance/The level of expressed mRNA in the absence of chemical substance", "setting": "yeast gene YIL088C", "value": 2.1}, {"measurement": "The level of expressed mRNA in the presence of chemical substance/The level of expressed mRNA in the absence of chemical substance", "setting": "yeast gene YJL034W", "value": 3.0}, {"measurement": "The level of expressed mRNA in the presence of chemical substance/The level of expressed mRNA in the absence of chemical substance", "setting": "yeast gene YJL212C", "value": 3.1}, {"measurement": "The level of expressed mRNA in the presence of chemical substance/The level of expressed mRNA in the absence of chemical substance", "setting": "yeast gene YJL219W", "value": 3.1}, {"measurement": "The level of expressed mRNA in the presence of chemical substance/The level of expressed mRNA in the absence of chemical substance", "setting": "yeast gene YJR077C", "value": 2.0}, {"measurement": "The level of expressed mRNA in the presence of chemical substance/The level of expressed mRNA in the absence of chemical substance", "setting": "yeast gene YJR106W", "value": 1.5}, {"measurement": "The level of expressed mRNA in the presence of chemical substance/The level of expressed mRNA in the absence of chemical substance", "setting": "yeast gene YJR121W", "value": 3.3}, {"measurement": "The level of expressed mRNA in the presence of chemical substance/The level of expressed mRNA in the absence of chemical substance", "setting": "yeast gene YKL016C", "value": 0.7}, {"measurement": "The level of expressed mRNA in the presence of chemical substance/The level of expressed mRNA in the absence of chemical substance", "setting": "yeast gene YKL146W", "value": 1.3}, {"measurement": "The level of expressed mRNA in the presence of chemical substance/The level of expressed mRNA in the absence of chemical substance", "setting": "yeast gene YKR039W", "value": 1.3}, {"measurement": "The level of expressed mRNA in the presence of chemical substance/The level of expressed mRNA in the absence of chemical substance", "setting": "yeast gene YKR067W", "value": 1.5}, {"measurement": "The level of expressed mRNA in the presence of chemical substance/The level of expressed mRNA in the absence of chemical substance", "setting": "yeast gene YLL028W", "value": 4.6}, {"measurement": "The level of expressed mRNA in the presence of chemical substance/The level of expressed mRNA in the absence of chemical substance", "setting": "yeast gene YLR081W", "value": 2.8}, {"measurement": "The level of expressed mRNA in the presence of chemical substance/The level of expressed mRNA in the absence of chemical substance", "setting": "yeast gene YLR295C", "value": 1.1}, {"measurement": "The level of expressed mRNA in the presence of chemical substance/The level of expressed mRNA in the absence of chemical substance", "setting": "yeast gene YLR348C", "value": 1.2}, {"measurement": "The level of expressed mRNA in the presence of chemical substance/The level of expressed mRNA in the absence of chemical substance", "setting": "yeast gene YLR378C", "value": 2.6}, {"measurement": "The level of expressed mRNA in the presence of chemical substance/The level of expressed mRNA in the absence of chemical substance", "setting": "yeast gene YMR011W", "value": 9.4}, {"measurement": "The level of expressed mRNA in the presence of chemical substance/The level of expressed mRNA in the absence of chemical substance", "setting": "yeast gene YMR162C", "value": 1.1}, {"measurement": "The level of expressed mRNA in the presence of chemical substance/The level of expressed mRNA in the absence of chemical substance", "setting": "yeast gene YMR203W", "value": 3.0}, {"measurement": "The level of expressed mRNA in the presence of chemical substance/The level of expressed mRNA in the absence of chemical substance", "setting": "yeast gene YNL055C", "value": 5.5}, {"measurement": "The level of expressed mRNA in the presence of chemical substance/The level of expressed mRNA in the absence of chemical substance", "setting": "yeast gene YNL259C", "value": 1.1}, {"measurement": "The level of expressed mRNA in the presence of chemical substance/The level of expressed mRNA in the absence of chemical substance", "setting": "yeast gene YNR072W", "value": 0.5}, {"measurement": "The level of expressed mRNA in the presence of chemical substance/The level of expressed mRNA in the absence of chemical substance", "setting": "yeast gene YOL119C", "value": 1.5}, {"measurement": "The level of expressed mRNA in the presence of chemical substance/The level of expressed mRNA in the absence of chemical substance", "setting": "yeast gene YOL156W", "value": 2.5}, {"measurement": "The level of expressed mRNA in the presence of chemical substance/The level of expressed mRNA in the absence of chemical substance", "setting": "yeast gene YOL163W", "value": 2.1}, {"measurement": "The level of expressed mRNA in the presence of chemical substance/The level of expressed mRNA in the absence of chemical substance", "setting": "yeast gene YOR035C", "value": 0.3}, {"measurement": "The level of expressed mRNA in the presence of chemical substance/The level of expressed mRNA in the absence of chemical substance", "setting": "yeast gene YOR130C", "value": 1.4}, {"measurement": "The level of expressed mRNA in the presence of chemical substance/The level of expressed mRNA in the absence of chemical substance", "setting": "yeast gene YOR153W", "value": 5.1}, {"measurement": "The level of expressed mRNA in the presence of chemical substance/The level of expressed mRNA in the absence of chemical substance", "setting": "yeast gene YOR273C", "value": 1.7}, {"measurement": "The level of expressed mRNA in the presence of chemical substance/The level of expressed mRNA in the absence of chemical substance", "setting": "yeast gene YOR316C", "value": 1.5}, {"measurement": "The level of expressed mRNA in the presence of chemical substance/The level of expressed mRNA in the absence of chemical substance", "setting": "yeast gene YOR332W", "value": 1.0}, {"measurement": "The level of expressed mRNA in the presence of chemical substance/The level of expressed mRNA in the absence of chemical substance", "setting": "yeast gene YOR348C", "value": 1.2}, {"measurement": "The level of expressed mRNA in the presence of chemical substance/The level of expressed mRNA in the absence of chemical substance", "setting": "yeast gene YPL036W", "value": 2.8}, {"measurement": "The level of expressed mRNA in the presence of chemical substance/The level of expressed mRNA in the absence of chemical substance", "setting": "yeast gene YPL134C", "value": 1.6}, {"measurement": "The level of expressed mRNA in the presence of chemical substance/The level of expressed mRNA in the absence of chemical substance", "setting": "yeast gene YPL271W", "value": 4.1}, {"measurement": "The level of expressed mRNA in the presence of chemical substance/The level of expressed mRNA in the absence of chemical substance", "setting": "yeast gene YPR192W", "value": 0.9}, {"measurement": "The level of expressed mRNA in the presence of chemical substance/The level of expressed mRNA in the absence of chemical substance", "setting": "yeast gene YPR194C", "value": 0.5}]}]}
